ChEMBL document CHEMBL1201862, “PubChem BioAssay data set” (2004)
Active and inactive are the calls of the source.

Assays:
Troponin, cardiac muscle = Troponin, cardiac muscle (Homo sapiens, UniProt P19429+P45379+P63316); assay: Fluorescence-based biochemical high throughput dose response assay for activators of the calcium sensitivity of cardiac Regulated Thin Filaments (RTF). [Related pubchem assays (depositor defined):AID493008, AID493018, AID504382, AID504383]; type: protein-complex assay
[1] = Shn3 3'UTR reporter inhibitors, dose response, cell-based, Clone20 osteoblasts, firefly luciferase, cherry-picked (AID 624132); type: functional;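 further: firefly luciferase luminescence from reporter carrying the Shn3 3'UTR in osteoblasts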
Exodeoxyribonuclease V = target: T1, Exodeoxyribonuclease V (Escherichia coli (strain K12), UniProt P04993+P07648+P08394); assay: E. coli RecBCD inhibitors, dose response, counter-screen for AddAB inhibitor project, absorbance, V66 E. coli, mutant T4 phage (AID 492957); type: functional, cell-based, Escherichia coli str. K-12 substr. MG1655
T1 sequence (P04993 whole entry): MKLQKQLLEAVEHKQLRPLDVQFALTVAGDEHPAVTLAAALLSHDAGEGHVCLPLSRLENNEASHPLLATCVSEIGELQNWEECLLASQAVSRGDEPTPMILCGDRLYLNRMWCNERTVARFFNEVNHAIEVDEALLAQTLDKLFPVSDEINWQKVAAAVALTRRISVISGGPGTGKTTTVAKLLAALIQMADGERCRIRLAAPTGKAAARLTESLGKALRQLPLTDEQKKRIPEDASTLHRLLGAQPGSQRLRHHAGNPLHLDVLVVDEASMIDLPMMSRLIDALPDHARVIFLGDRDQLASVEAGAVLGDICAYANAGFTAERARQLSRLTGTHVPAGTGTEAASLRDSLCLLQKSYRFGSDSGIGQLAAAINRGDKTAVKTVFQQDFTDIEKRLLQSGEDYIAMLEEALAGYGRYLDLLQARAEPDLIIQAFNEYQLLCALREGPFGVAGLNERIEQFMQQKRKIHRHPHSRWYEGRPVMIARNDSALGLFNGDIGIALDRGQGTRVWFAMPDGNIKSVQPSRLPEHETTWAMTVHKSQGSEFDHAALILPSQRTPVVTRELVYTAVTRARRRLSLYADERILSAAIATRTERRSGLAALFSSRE
T1 sequence (P07648 whole entry): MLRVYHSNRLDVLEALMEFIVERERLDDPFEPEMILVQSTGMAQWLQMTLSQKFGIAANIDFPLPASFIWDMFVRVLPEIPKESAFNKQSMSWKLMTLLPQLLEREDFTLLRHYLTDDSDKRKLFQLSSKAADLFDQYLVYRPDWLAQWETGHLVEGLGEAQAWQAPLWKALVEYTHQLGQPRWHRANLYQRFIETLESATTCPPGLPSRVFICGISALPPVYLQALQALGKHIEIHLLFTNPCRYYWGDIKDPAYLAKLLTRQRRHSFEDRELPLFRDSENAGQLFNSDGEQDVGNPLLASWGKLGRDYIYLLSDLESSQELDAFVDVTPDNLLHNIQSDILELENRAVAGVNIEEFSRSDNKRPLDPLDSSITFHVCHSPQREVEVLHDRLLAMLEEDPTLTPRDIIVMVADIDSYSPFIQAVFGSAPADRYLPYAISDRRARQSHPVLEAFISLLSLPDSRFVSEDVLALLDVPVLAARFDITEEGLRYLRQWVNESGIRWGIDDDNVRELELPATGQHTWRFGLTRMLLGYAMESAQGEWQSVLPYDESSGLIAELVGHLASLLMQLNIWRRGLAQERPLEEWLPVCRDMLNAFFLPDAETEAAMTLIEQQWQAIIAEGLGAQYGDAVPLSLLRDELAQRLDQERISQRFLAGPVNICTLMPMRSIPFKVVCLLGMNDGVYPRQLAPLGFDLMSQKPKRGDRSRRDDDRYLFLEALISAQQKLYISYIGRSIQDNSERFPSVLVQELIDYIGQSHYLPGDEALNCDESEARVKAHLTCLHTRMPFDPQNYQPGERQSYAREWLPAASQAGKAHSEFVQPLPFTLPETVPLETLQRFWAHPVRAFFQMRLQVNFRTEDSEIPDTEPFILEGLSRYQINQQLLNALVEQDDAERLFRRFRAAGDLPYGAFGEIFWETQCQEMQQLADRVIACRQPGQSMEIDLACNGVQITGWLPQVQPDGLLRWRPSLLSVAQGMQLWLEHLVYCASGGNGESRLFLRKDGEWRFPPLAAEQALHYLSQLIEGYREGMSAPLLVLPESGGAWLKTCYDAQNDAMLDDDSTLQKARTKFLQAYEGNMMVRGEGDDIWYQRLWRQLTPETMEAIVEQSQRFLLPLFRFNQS
T1 sequence (P08394 whole entry): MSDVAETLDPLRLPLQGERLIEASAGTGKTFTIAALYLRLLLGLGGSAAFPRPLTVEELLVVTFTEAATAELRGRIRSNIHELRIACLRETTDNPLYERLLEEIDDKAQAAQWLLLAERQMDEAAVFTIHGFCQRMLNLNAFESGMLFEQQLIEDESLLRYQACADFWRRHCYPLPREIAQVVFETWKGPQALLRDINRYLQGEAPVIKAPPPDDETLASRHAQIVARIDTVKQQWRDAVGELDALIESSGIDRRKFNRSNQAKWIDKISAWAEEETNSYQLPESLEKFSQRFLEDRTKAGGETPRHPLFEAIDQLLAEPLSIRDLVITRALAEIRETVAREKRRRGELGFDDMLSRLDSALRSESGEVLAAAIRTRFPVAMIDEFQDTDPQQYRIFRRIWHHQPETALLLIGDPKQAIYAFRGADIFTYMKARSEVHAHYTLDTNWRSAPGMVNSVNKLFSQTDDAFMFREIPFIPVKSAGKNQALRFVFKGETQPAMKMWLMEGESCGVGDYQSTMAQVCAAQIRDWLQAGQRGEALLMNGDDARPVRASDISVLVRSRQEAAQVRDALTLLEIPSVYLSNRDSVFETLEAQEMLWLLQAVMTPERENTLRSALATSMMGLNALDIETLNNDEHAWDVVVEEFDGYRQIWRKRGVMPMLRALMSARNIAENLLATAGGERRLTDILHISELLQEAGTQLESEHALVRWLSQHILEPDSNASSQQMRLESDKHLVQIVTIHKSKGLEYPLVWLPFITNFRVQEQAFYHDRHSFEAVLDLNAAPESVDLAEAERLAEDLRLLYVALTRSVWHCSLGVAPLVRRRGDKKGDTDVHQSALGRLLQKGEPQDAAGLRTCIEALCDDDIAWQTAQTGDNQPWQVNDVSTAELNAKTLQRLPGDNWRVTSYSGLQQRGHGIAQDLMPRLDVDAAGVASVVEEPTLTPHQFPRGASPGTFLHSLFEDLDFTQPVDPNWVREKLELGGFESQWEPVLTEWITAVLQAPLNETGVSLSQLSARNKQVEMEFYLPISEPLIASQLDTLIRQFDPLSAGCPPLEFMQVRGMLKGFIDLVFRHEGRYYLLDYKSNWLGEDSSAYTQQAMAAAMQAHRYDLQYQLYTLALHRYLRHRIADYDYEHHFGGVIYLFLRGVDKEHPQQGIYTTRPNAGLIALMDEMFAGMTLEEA

cells [2] = type: functional, cell-based
INS1 = assay: beta cell apoptosis inhibitors, cytokine rescue, dose response, luminescence, retest (AID 449756); type: functional, cell-based; conditions: Rattus norvegicus;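 further: cell death triggered by IL-1 beta plus TNF-alpha plus IFN-gamma mixture; protective hits raise ATP signal compared with cytokine alone wells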
[3] = control 3'UTR Renilla luciferase suppression, dose response, counter-screen for Shn3 inhibitor project, cell-based, Clone20-Shn3RL, cherry-picked (AID 624133); type: functional
SUMO-activating enzyme [4] = target: T2, SUMO-activating enzyme (Homo sapiens, UniProt Q9UBT2); assay: inhibitors of in vitro SUMOylation cascade, primary screen, biochemical, HTRF, uHTS (AID 2006); type: protein-complex assay
[5] = Counterscreen for AddAB inhibitors: absorbance-based bacterial cell-based high throughput dose response assay for inhibitors of bacterial viability. [Related pubchem assays (depositor defined):AID435030, AID449728, AID449731, AID488942, AID488955, AID488956]; type: functional
SUMO-activating enzyme [6] = target: T2, SUMO-activating enzyme; assay: SUMOylation inhibitor hit validation, confirmation, SUMOylation inhibitor project, biochemical, AlphaScreen (AID 2018); type: functional
cells [7] = type: functional, cell-based; remark: listed apart in the source
[8] = HepG2 cell cytotoxicity, dose response, cytotoxicity control for Shn3 inhibitor project, CellTiter-Glo, cherry-picked (AID 624134); type: functional, cell-based
Perilipin-1/ABHD5 = target: T3, Perilipin-1/ABHD5 (Homo sapiens, UniProt O60240+Q8WTS1); assay: Luminescence-based biochemical high throughput dose response assay for inhibitors of the interaction of the lipase co-activator protein, abhydrolase domain containing 5 (ABHD5) with perilipin-1 (PLIN1) (2K validation set). [Related pubchem assays (depositor defined):AID493027, AID493057]
T3 sequence (Q8WTS1 whole entry): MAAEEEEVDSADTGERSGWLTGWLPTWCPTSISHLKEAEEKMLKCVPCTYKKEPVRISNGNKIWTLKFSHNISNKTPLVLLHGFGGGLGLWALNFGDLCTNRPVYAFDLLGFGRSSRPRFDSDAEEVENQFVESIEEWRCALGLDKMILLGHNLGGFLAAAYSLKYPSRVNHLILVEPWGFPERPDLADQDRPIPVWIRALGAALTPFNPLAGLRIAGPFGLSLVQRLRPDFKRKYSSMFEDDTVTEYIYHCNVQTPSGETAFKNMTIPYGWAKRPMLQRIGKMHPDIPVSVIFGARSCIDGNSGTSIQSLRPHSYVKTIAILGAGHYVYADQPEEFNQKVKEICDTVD
T3 sequence (O60240 whole entry): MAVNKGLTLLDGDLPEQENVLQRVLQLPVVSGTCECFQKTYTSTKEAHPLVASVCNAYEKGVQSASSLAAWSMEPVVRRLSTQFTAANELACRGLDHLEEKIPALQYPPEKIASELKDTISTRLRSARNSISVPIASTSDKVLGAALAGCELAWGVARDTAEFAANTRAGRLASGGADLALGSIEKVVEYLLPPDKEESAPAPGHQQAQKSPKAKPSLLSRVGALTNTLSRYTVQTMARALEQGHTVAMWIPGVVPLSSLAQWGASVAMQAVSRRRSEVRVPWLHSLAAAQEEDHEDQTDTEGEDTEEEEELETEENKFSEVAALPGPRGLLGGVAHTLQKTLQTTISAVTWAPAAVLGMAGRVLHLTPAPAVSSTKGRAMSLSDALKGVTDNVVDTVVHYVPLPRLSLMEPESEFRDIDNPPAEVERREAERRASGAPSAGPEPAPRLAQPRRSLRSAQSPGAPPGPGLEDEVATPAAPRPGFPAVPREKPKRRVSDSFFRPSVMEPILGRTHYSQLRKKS

[9] = target: T4, 1-acylglycerol-3-phosphate O-acyltransferase ABHD5/Perilipin-5 (Homo sapiens, UniProt Q00G26+Q8WTS1); assay: Luminescence-based biochemical high throughput dose response assay for inhibitors of the interaction of the lipase co-activator protein, abhydrolase domain containing 5 (ABHD5) with perilipin-5 (MLDP; PLIN5) (2K validation set). [Related pubchem assays (depositor defined):AID493035, AID493241]
T4 sequence (Q00G26 whole entry): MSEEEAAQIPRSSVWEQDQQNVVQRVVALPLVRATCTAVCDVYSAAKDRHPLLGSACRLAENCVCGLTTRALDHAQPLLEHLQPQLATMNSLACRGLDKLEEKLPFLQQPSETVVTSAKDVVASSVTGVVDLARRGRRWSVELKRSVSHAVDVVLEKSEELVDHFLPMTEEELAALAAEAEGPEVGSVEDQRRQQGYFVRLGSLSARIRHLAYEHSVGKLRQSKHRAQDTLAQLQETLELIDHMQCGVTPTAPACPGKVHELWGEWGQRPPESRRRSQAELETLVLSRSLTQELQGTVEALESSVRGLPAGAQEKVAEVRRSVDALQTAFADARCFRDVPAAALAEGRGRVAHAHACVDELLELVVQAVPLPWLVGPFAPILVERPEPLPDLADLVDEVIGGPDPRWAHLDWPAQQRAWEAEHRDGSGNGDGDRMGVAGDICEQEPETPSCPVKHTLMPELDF
T4 sequence (Q8WTS1 whole entry): T3 sequence (Q8WTS1 whole entry)

[10] = target: Intestinal-type alkaline phosphatase (Homo sapiens, UniProt P09923); assay: Dose Response confirmation of uHTS hits from a small molecule inhibitors of human intestinal alkaline phosphatase via a luminescent assay. [Related pubchem assays (depositor defined):AID2544, AID2574]; type: functional
[11] = target: T5, Voltage-gated N-type calcium channel alpha-1B subunit/Amyloid beta A4 precursor protein-binding family A member 1 (Homo sapiens, UniProt Q00975+Q02410); type: protein assay
[12] = target: T5, Voltage-gated N-type calcium channel alpha-1B subunit/Amyloid beta A4 precursor protein-binding family A member 1; type: protein assay; remark: listed apart in the source

T5 sequence (Q00975 whole entry): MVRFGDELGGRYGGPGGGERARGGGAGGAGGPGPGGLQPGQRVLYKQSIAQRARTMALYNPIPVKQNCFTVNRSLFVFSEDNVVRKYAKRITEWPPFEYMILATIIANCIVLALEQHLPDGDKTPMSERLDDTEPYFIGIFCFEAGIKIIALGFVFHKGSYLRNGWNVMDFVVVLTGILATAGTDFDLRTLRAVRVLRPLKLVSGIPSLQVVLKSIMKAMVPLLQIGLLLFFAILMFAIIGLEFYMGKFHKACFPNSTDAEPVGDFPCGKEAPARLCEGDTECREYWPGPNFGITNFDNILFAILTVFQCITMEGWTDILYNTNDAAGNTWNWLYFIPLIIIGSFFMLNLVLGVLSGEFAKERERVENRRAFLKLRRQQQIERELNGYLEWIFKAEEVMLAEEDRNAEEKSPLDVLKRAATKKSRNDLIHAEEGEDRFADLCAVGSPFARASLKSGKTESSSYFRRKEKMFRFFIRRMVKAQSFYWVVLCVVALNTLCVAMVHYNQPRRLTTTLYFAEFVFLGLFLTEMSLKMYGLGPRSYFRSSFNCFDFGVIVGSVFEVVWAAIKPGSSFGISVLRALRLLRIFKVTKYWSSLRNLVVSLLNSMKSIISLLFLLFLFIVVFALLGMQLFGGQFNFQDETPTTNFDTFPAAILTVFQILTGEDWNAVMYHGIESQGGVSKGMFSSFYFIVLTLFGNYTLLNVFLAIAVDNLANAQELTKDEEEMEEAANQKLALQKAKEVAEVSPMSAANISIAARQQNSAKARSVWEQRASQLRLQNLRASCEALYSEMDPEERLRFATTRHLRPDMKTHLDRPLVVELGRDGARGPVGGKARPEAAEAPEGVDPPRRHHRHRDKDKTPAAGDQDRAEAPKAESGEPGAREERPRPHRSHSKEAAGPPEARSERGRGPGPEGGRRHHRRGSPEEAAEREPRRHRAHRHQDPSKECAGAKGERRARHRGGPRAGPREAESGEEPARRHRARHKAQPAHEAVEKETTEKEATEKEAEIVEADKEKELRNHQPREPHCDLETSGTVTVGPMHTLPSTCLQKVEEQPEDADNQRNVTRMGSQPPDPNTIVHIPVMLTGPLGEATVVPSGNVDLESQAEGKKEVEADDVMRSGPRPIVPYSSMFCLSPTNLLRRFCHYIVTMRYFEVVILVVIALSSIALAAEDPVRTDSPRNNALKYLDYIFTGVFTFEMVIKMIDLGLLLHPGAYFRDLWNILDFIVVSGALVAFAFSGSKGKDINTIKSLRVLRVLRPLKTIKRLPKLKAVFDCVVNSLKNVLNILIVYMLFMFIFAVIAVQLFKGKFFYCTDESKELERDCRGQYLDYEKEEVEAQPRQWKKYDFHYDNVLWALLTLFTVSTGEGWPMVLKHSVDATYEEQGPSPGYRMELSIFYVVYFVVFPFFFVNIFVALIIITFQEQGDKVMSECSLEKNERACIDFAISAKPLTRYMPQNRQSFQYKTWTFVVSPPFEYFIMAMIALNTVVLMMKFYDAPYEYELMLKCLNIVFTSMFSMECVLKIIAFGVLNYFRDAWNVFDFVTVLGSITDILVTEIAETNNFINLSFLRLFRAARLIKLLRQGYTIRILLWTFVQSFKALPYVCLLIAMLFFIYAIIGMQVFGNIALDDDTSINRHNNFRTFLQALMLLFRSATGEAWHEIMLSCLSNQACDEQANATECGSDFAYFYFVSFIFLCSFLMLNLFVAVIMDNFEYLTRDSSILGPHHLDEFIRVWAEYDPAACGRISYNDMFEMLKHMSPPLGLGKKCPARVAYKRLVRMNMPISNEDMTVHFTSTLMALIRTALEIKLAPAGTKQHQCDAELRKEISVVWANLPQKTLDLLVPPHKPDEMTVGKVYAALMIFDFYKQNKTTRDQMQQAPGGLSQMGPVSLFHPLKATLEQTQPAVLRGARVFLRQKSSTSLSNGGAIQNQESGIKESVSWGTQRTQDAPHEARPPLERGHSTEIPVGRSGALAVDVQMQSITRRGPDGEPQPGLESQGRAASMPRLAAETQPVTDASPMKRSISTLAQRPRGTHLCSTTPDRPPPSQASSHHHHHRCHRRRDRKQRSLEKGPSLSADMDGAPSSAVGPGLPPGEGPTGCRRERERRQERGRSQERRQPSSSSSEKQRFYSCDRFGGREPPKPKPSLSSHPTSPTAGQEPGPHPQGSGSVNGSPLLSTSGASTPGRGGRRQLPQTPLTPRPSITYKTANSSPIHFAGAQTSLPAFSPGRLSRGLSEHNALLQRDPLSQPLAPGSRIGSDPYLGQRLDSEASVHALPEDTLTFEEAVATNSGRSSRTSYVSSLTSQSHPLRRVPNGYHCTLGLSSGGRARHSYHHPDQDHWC
T5 sequence (Q02410 whole entry): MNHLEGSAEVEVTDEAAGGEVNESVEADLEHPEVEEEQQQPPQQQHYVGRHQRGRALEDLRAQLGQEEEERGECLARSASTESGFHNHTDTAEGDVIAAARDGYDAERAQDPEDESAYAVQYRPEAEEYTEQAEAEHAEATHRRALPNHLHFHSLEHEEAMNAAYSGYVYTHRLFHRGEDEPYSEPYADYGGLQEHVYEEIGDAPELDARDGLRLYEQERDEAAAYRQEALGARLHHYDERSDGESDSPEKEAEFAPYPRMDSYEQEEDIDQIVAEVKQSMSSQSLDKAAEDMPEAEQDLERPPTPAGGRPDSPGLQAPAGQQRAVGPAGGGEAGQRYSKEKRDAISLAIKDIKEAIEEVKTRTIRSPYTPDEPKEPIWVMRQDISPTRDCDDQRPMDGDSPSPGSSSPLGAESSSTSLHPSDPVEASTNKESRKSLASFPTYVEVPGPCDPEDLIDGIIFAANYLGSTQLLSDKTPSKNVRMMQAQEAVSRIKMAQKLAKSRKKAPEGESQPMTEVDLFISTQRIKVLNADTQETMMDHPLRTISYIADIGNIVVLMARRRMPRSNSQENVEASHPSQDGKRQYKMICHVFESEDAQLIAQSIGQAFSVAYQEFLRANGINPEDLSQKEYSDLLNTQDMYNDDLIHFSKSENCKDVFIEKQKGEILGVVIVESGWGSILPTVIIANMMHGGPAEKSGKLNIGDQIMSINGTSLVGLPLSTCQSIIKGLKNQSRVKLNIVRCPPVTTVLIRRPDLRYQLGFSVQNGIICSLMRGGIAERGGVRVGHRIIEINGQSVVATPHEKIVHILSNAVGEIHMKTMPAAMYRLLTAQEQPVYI
Sequence of Intestinal-type alkaline phosphatase (P09923 whole entry): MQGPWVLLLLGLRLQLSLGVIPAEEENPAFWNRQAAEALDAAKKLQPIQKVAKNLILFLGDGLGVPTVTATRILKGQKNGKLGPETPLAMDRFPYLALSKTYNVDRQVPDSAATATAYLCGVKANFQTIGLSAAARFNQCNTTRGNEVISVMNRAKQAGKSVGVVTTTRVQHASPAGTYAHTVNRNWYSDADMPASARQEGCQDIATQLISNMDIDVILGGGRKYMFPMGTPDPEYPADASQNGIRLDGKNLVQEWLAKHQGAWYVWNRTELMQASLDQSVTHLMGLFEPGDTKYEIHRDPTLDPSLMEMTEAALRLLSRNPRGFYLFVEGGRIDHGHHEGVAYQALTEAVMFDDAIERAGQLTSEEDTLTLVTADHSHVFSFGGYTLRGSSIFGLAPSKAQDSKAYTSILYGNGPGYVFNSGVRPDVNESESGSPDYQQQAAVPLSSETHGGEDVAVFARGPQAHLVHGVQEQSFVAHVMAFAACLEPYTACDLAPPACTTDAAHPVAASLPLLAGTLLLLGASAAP
T2 sequence (Q9UBE0 whole entry): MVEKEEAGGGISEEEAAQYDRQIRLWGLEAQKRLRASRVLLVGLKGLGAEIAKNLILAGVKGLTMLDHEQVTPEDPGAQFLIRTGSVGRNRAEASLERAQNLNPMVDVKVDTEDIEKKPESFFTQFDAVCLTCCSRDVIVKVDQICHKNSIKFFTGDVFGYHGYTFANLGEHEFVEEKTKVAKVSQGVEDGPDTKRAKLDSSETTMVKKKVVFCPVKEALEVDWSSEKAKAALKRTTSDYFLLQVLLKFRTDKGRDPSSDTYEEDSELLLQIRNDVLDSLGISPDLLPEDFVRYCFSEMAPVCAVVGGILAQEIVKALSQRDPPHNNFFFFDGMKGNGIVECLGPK
T2 sequence (Q9UBT2 whole entry): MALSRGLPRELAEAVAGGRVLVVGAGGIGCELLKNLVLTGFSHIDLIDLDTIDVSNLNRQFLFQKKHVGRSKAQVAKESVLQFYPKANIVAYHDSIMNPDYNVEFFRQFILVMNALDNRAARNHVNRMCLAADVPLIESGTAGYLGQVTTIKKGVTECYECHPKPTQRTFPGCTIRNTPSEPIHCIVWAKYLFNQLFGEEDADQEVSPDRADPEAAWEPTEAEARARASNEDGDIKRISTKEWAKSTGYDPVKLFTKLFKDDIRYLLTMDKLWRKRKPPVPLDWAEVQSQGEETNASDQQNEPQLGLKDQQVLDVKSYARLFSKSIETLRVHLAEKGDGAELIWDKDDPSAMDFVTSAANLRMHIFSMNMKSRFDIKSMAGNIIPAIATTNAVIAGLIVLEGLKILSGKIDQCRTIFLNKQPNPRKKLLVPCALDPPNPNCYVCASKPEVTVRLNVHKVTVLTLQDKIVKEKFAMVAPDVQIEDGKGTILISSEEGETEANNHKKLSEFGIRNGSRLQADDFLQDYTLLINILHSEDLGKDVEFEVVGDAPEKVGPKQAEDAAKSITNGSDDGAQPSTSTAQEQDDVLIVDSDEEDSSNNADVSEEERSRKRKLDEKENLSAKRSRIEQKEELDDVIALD

## COc1cc(N2CCCC2)c(OC)cc1/C=C1/NC(=S)NC1=O
Troponin, cardiac muscle
  EC50: 1.14 µM (active)

## CCCCC(=O)NC(c1ccccc1Cl)c1ccc2cccnc2c1O (configuration not stated)
[1]
  AC50: 1.12 µM (active)
Exodeoxyribonuclease V
  IC50: > 119 µM (inactive)
Cells [2]
  EC50: > 350 µM (not active)
INS1
  AC50: 645 nM (active)
[3]
  AC50: 856 nM (active)
SUMO-activating enzyme [4]
  IC50: > 100 µM (inactive)
[5]
  IC50: > 119 µM (inactive)
SUMO-activating enzyme [6]
  IC50: 9.96 µM (active)
Cells [7]
  EC50: 8.93 µM (active)
[8]
  AC50: 3.56 µM (active)

## CSCCC(NC(=O)OC(C)(C)C)C(=O)Oc1ccc2c(=O)c(-c3ccc4c(c3)OCCO4)coc2c1 (configuration not stated)
Perilipin-1/ABHD5
  IC50: 2.99 µM (active)
[9]
  IC50: 3.94 µM (active)

## O=C(O)COn1c(-c2ccc(Cl)cc2)nc2ccc(Cl)cc21
[10]
  IC50: > 100 µM (inactive)

## O=C(CCN1C(=O)/C(=C/c2ccccc2Cl)SC1=S)NC1CCS(=O)(=O)C1 (configuration not stated)
[11]
  IC50: 5.22 µM (active)
[12]
  IC50: > 50 µM (inactive)

## COc1ccc(N2C(=O)NC(=O)/C(=C\c3c[nH]c4ccccc34)C2=O)cc1
[11]
  IC50: 23.7 µM (active)
[12]
  IC50: > 50 µM (inactive)

## Cc1cc(C)n(C(=O)C23CC4CC(CC(C4)C2)C3)n1
[10]
  IC50: > 100 µM (inactive)

## COc1ccc2[nH]c(-c3ccccn3)nc2c1
Troponin, cardiac muscle
  EC50: > 71.5 µM (inactive)

## COc1ccc(/C=C2\CC/C(=C\c3ccc(OC)c(OC)c3)C2=O)cc1OC
Perilipin-1/ABHD5
  IC50: 5.6 µM (active)
[9]
  IC50: 5.24 µM (active)
